Results as given in patent publication US4439460A, “Dipeptide sweetener sulfate and sulfonate salts” (G. D. Searle & Co., priority 1982, dated 1984).
Where a SMILES comes first, the peptide text is derived from it.

Legend:
[1] = Shelf life determination: accelerated storage, HPLC assay; format: physicochemical
Experimental: Two sets of samples of the APM sulfate salt of Example 1, APM hydrochloride and APM each having a weight equivalent to […] APM were placed in ovens which contained an open beaker of water. The first set of samples was heated at 70° and 100 percent humidity for 14.7 days. The second set of samples was heated at 85° and atmospheric humidity for 14.7 days. The samples were periodically analyzed by the HPLC method as described above in order to determine percent decomposition.

[2] = Taste of baked dipeptide sweetened yellow cakes; conditions: single blind conditions
Experimental: A taste test of the baked dipeptide sweetened yellow cakes can also be conducted under standard single blind conditions.
(§1) Yellow cakes were baked following a standard recipe, but substituting a dipeptide sweetener or its salt and Maltrin M-100 (a modified maltodextrin starch bulking agent) for sugar. The liquid ingredients were creamed together then folded into a sifted mixture of the dry ingredients. The resulting dough was placed in a greased 8-inch cake pan and baked at 350° for 40 minutes. Three cakes were baked in this manner; cake 1 contained (APM-H)2 SO4, cake 2 contained APM-HCl, cake 3 contained APM.

[3] = Thermal stability examination: oven at 170° C., HPLC analysis; format: physicochemical; conditions: for degradation: after seven, fifteen or twenty-five minutes heating at about 170° C.; for % Degradation, 7 Minutes (170° C.) / % Degradation, 15 Minutes (170° C.) / Physical Appearance after 25 Minutes at 170° C. / % Degradation, 25 Minutes (170° C.): oven 170° C.; for % Degradation, 7 Minutes (170° C.) / % Degradation, 15 Minutes (170° C.) / % Degradation, 25 Minutes (170° C.): HPLC
Experimental: Samples of the salts of Examples 1 and 2 having weights equivalent to about 40 mg of APM and reference samples (40 mg) of free base aspartylphenylalanine methyl ester (APM) and the corresponding hydrochloride dihydrogen phosphate (H2 PO4) and bisulfate (HSO4) salts having weights equivalent to about 40 mg APM were placed in individual 10 ml beakers and put in an oven pre-heated to 170° C. The samples were allowed to bake for predetermined times (7, 15 and 25 minutes) after which they were removed from the oven and analyzed by HPLC using the foregoing HPLC methods.

[4] = Thermal stability studies in baked cake: HPLC of core samples; format: physicochemical; conditions: for sweetener recovery: typical cake test, baked at 350° Fahrenheit for about thirty to forty-five minutes
Experimental: In this test sweetened yellow cakes are prepared following well-known procedures and using the appropriate ingredients but substituting dipeptide sweetener for sugar. Use of examples of salts of the invention and reference dipeptides and salts such as the hydrochloride will produce eight-inch yellow cakes which are ready for sweetener content comparison. The cakes are typically baked at 350° Fahrenheit (about 175° C.) for about thirty to forty-five minutes. Taking core sections of the sample cakes and analyzing for dipeptide sweetener content allows determination of the percent degradation of the form of the dipeptide sweetener used. In a typical thermal stability cake test, a cake baked with the sulfate salt of the invention will have about […] more dipeptide sweetener in it than a cake baked with the hydrochloride salt; compare, for example, about 34 percent sweetener recovery for the sulfate with about 25 percent for the hydrochloride.
as §1
The liquid ingredients included milk (193 g), shortening (54 g), egg (53 g, 1 egg), vanilla (3.6 g); the dry ingredients included flour (167 g), baking powder (6.9 g), salt (3.4 g), maltrin M-100 (126.5 g) dipeptide sweetener salt: (APM-H)2 SO4 (cake 1) (1.2 g), APM-HCl (cake 2) (1.2 g), APM (cake 3) (1.0 g).
Core samples were taken from each of the three cakes and the samples were analyzed by HPLC methods as described in Example 1.

[5] = Rate of dissolution studies in beverage media; format: physicochemical; conditions: for Media Dissolution Times, medium 4: ambient temperature coffee (80 ml); for Media Dissolution Times, medium 4 / Media Dissolution Times, medium 3 / Media Dissolution Times, medium 2: with stirring; for Media Dissolution Times, medium 4 / Media Dissolution Times, medium 1 / Media Dissolution Times, medium 3 / Media Dissolution Times, medium 2: salt equimolar with 57 mg APM; for Media Dissolution Times, medium 1: refrigerated carbonated water (240 ml), without stirring; for Media Dissolution Times, medium 3: refrigerated coffee (80 ml); for Media Dissolution Times, medium 2: refrigerated lemonade with no sugar (240 ml)
Experimental: Samples of the salts of Examples 1, 2 and the APM hydrochloride and corresponding bisulfate and dihydrogen phosphate salts were employed to determine relative dissolution rates in beverage media. The amount of salt used in each instance was calculated to be equimolar with 57 mg of APM. The tests were conducted in four types of liquid beverage media; (1) refrigerated carbonated water (240 ml), (2) refrigerated lemonade without sugar (240 ml), (3) refrigerated coffee (80 ml), (4) coffee at ambient temperature (80 ml). The dissolution rates in medium 1 were measured without stirring and the rates in 2, 3 and 4 were measured with stirring. Dissolution was deemed complete when solid particles or a cloudy appearing medium were no longer present.

COC(=O)[C@H](Cc1ccccc1)NC(=O)[C@@H](N)CC(=O)O [A, aspartylphenylalanine methyl ester] (H-Asp-Phe-OMe)
HPLC Assay (% composition) APM, 6.8 days ([1]; 70°, 100 percent humidity): 95.3% | HPLC Assay (% composition) DKP, 6.8 days ([1]; 70°, 100 percent humidity): 1.1% | APM % Initial (APM remaining after 14.7 days relative to the initial APM) ([1]; 70°, 100 percent humidity): 95.9% | HPLC Assay (% composition) AP, 14.7 days ([1]; 70°, 100 percent humidity): 0.21% | HPLC Assay (% composition) APM, 14.7 days ([1]; 70°, 100 percent humidity): 92.6% | HPLC Assay (% composition) DKP, 14.7 days ([1]; 70°, 100 percent humidity): 1.2% | HPLC Assay (% composition) APM, 6.8 days ([1]; 85° C., atmospheric humidity): 95.2% | HPLC Assay (% composition) DKP, 6.8 days ([1]; 85° C., atmospheric humidity): 1.6% | APM % Initial (APM remaining after 14.7 days relative to the initial APM) ([1]; 85° C., atmospheric humidity): 94.9% | HPLC Assay (% composition) AP, 14.7 days ([1]; 85° C., atmospheric humidity): .20% | HPLC Assay (% composition) APM, 14.7 days ([1]; 85° C., atmospheric humidity): 91.7% | HPLC Assay (% composition) DKP, 14.7 days ([1]; 85° C., atmospheric humidity): 2.0% | HPLC Assay (% composition) APM, Initial ([1]; initial, before storage): 96.6% | HPLC Assay (% composition) DKP, Initial ([1]; initial, before storage): 1.0% | cake sweetness, panel taste testing [2]: little sweetness and a flat taste | degradation [3]: ≤ 85% | % Degradation, 7 Minutes (170° C.) [3]: 0% | % Degradation, 15 Minutes (170° C.) [3]: 22.2% | Physical Appearance after 25 Minutes at 170° C. [3]: light-gray material | % Degradation, 25 Minutes (170° C.) [3]: 87.6%

COC(=O)[C@H](Cc1ccccc1)NC(=O)[C@@H](N)CC(=O)O.Cl [B, aspartylphenylalanine methyl ester hydrochloride] (H-Asp-Phe-OMe)
HPLC Assay (% composition) AP, 6.8 days ([1]; 70°, 100 percent humidity): .33% | HPLC Assay (% composition) APM, 6.8 days ([1]; 70°, 100 percent humidity): 77.7% | HPLC Assay (% composition) DKP, 6.8 days ([1]; 70°, 100 percent humidity): .25% | APM % Initial (APM remaining after 14.7 days relative to the initial APM) ([1]; 70°, 100 percent humidity): 93.6% | HPLC Assay (% composition) AP, 14.7 days ([1]; 70°, 100 percent humidity): .36% | HPLC Assay (% composition) APM, 14.7 days ([1]; 70°, 100 percent humidity): 75.1% | HPLC Assay (% composition) DKP, 14.7 days ([1]; 70°, 100 percent humidity): .60% | HPLC Assay (% composition) AP, 6.8 days ([1]; 85° C., atmospheric humidity): 1.1% | HPLC Assay (% composition) APM, 6.8 days ([1]; 85° C., atmospheric humidity): 62.1% | HPLC Assay (% composition) DKP, 6.8 days ([1]; 85° C., atmospheric humidity): 4.0% | APM % Initial (APM remaining after 14.7 days relative to the initial APM) ([1]; 85° C., atmospheric humidity): 57.3% | HPLC Assay (% composition) AP, 14.7 days ([1]; 85° C., atmospheric humidity): 1.6% | HPLC Assay (% composition) APM, 14.7 days ([1]; 85° C., atmospheric humidity): 46.0% | HPLC Assay (% composition) DKP, 14.7 days ([1]; 85° C., atmospheric humidity): 3.2% | HPLC Assay (% composition) APM, Initial ([1]; initial, before storage): 80.2% | sweetener recovery [4]: about 25% | degradation [3]: at least 45% | % Degradation, 7 Minutes (170° C.) [3]: 2% | % Degradation, 15 Minutes (170° C.) [3]: 8.5% | Physical Appearance after 25 Minutes at 170° C. [3]: melted, light-brown | % Degradation, 25 Minutes (170° C.) [3]: 44.7% | Media Dissolution Times, medium 4 [5]: 90 s | Media Dissolution Times, medium 1 [5]: 120 s | Media Dissolution Times, medium 3 [5]: 94 s | dissolution of a sweetening amount in refrigerated lemonade [5]: require significant time and stirring to dissolve | Media Dissolution Times, medium 2 [5]: 52 s

COC(=O)[C@H](Cc1ccccc1)NC(=O)[C@@H](N)CC(=O)O.O=S(=O)(O)O [C, aspartylphenylalanine methyl ester bisulfate] (H-Asp-Phe-OMe)
degradation [3]: ≤ 85% | % Degradation, 7 Minutes (170° C.) [3]: 62.8% | % Degradation, 15 Minutes (170° C.) [3]: 78.2% | Physical Appearance after 25 Minutes at 170° C. [3]: melted colorless | % Degradation, 25 Minutes (170° C.) [3]: 89.2% | Media Dissolution Times, medium 4 [5]: 330 s

COC(=O)[C@H](Cc1ccccc1)NC(=O)[C@@H](N)CC(=O)O.O=P(O)(O)O [D] (H-Asp-Phe-OMe)
% Degradation, 7 Minutes (170° C.) [3]: 0.1% | % Degradation, 15 Minutes (170° C.) [3]: 60.6% | Physical Appearance after 25 Minutes at 170° C. [3]: yellow powder | % Degradation, 25 Minutes (170° C.) [3]: 86.6% | Media Dissolution Times, medium 4 [5]: 600 s

COC(=O)[C@H](Cc1ccccc1)NC(=O)[C@@H](N)CC(=O)O.COC(=O)[C@H](Cc1ccccc1)NC(=O)[C@@H](N)CC(=O)O.O=S(=O)(O)O [Ex. 1, Bis(hydrogen aspartylphenylalanine methyl ester) sulfate] (H-Asp-Phe-OMe)
HPLC Assay (% composition) APM, 6.8 days ([1]; 70°, 100 percent humidity): 83.9% | APM % Initial (APM remaining after 14.7 days relative to the initial APM) ([1]; 70°, 100 percent humidity): 96.7% | HPLC Assay (% composition) AP, 14.7 days ([1]; 70°, 100 percent humidity): .20% | HPLC Assay (% composition) APM, 14.7 days ([1]; 70°, 100 percent humidity): 82.1% | HPLC Assay (% composition) APM, 6.8 days ([1]; 85° C., atmospheric humidity): 83.0% | HPLC Assay (% composition) DKP, 6.8 days ([1]; 85° C., atmospheric humidity): 0.15% | APM % Initial (APM remaining after 14.7 days relative to the initial APM) ([1]; 85° C., atmospheric humidity): 95.4% | HPLC Assay (% composition) AP, 14.7 days ([1]; 85° C., atmospheric humidity): .20% | HPLC Assay (% composition) APM, 14.7 days ([1]; 85° C., atmospheric humidity): 80.9% | HPLC Assay (% composition) DKP, 14.7 days ([1]; 85° C., atmospheric humidity): .08% | degradation in shelf life stability tests ([1]; about 85° for about 15 days or 70° for about 15 days at 100 percent humidity): less degradation than the hydrochloride salt | HPLC Assay (% composition) APM, Initial ([1]; initial, before storage): 84.8% | sweetener recovery [4]: about 34% | more dipeptide sweetener in cake than a cake baked with the hydrochloride salt ([4]; typical thermal stability cake test): about 50% | cake sweetness, panel taste testing [2]: approximately equal to that of sugar | degradation [3]: less than 10% | % Degradation, 7 Minutes (170° C.) [3]: 1.3% | % Degradation, 15 Minutes (170° C.) [3]: 0% | Physical Appearance after 25 Minutes at 170° C. [3]: white cryst. powder | % Degradation, 25 Minutes (170° C.) [3]: 5.5% | dissolution rate relative to the corresponding hydrochloride salt [5]: at least approximately five to six times faster | Media Dissolution Times, medium 4 [5]: 22 s | Media Dissolution Times, medium 1 [5]: 22 s | Media Dissolution Times, medium 3 [5]: 24 s | dissolution of a sweetening amount in refrigerated lemonade [5]: completely dissolve in refrigerated lemonade without stirring | Media Dissolution Times, medium 2 [5]: About 0 seconds

COC(=O)[C@H](Cc1ccccc1)NC(=O)[C@@H](N)CC(=O)O.CS(=O)(=O)O [Ex. 2] (H-Asp-Phe-OMe)
degradation [3]: about 30% | % Degradation, 7 Minutes (170° C.) [3]: 0.0% | % Degradation, 15 Minutes (170° C.) [3]: 0.5% | Physical Appearance after 25 Minutes at 170° C. [3]: off white powder | % Degradation, 25 Minutes (170° C.) [3]: 28.0% | Media Dissolution Times, medium 4 [5]: 167 s | Media Dissolution Times, medium 1 [5]: 168 s | Media Dissolution Times, medium 2 [5]: 250 s
